Data taken from publication PMC4038472, “Exploring the Potential of Flubendazole in Filariasis Control: Evaluation of the Systemic Exposure for Different Pharmaceutical Preparations” (PLoS Neglected Tropical Diseases, 2014).
Where two headings read alike, the source gives them in different places.

Columns and labels:
[1] = mouse, in vivo; cited from earlier work
[2] = format: in vivo; details: for Time at which peak plasma concentrations were observed: range according to the experimental group and animal species (rats and jirds), FLBZ 5 mg/kg
Method: (§1) Jirds and rats were randomly allocated into four experimental groups (44 animals each). Experimental animals received the following treatments: FLBZ-CDoral, dosed orally (administered volume 0.25 and 1 mL for jirds and rats, respectively) in a CD-based solution (Cavasol); FLBZ-CDsc, dosed subcutaneously (sc) (injection volume of 0.25 and 1 mL for jirds and rats, respectively) in a CD-based solution (Cavitron); FLBZ-TWEEN, dosed sc (injection volume of 0.1 and 0.4 mL for jirds and rats, respectively) in a Tween-based formulation; and FLBZ-CMC, dosed orally (same volume as for FLBZ-CDoral) in a CMC-based suspension. The oral dose was administered using an intragastric tube. All treatments were given as a single dose of 5 mg/kg. The dose was selected because it is the dose previously reported in efficacy studies performed in the murine model. At defined time-points following treatment (5, 15 and 30 min, 1, 2, 3, 4, 6, 9, 12 and 16 h), blood samples were collected (n = 4 per time point) in heparinized plastic tubes. Plasma was separated by centrifugation at 2000× g for 15 min, placed into plastic tubes and frozen at −20°C until analysis by HPLC to quantify FLBZ, R-FLBZ and H-FLBZ plasma concentrations. After sc administration of the formulations, potential injection site reactions were evaluated by direct visual observation at the sampling time.
Chromatography was performed on a Shimadzu HPLC platform (Shimadzu Corporation, Kyoto, Japan), with two LC-10AS solvent pumps, an automatic sample injector (SIL-10A) with a 50 µL loop, an ultraviolet-visible spectrophotometric detector (UV) (SPD-10A) reading at 292 nm, a column oven (Eppendorf TC-45, Eppendorf, Madison, WI, USA) set at 30°C, and a CBM-10A integrator. Data and chromatograms were collected and analyzed using the Class LC10 software (SPD-10A, Shimadzu Corporation, Kyoto, Japan). The C18 reversed-phase column (5 µm, 250 mm×4.6 mm) was Kromasil (Kromasil®, Sweden). […]
Plasma samples (100 or 200 µL for jirds and rats, respectively) were spiked with OBZ as internal standard. […] Complete validation of the analytical procedures for extraction and quantification of drug and metabolites in plasma was performed before starting the analysis of experimental samples. […] The limit of quantification (FLBZ and metabolites was 0.01 µg/mL), defined as the lowest measured concentration with a CV <20%, accuracy of ±20% and absolute recovery ≥70%.
The peak concentration (Cmax) and time to peak concentration (Tmax) were read from the plotted concentration–time curve for each analyte. The area under the concentration–time curve from 0 up to the limit of quantification (AUC0-LOQ) for FLBZ and metabolites was calculated by the trapezoidal rule, using the PKSolutionTM computer program (Summit Research Services, Ashland, OR, USA). […]

[3] = parameters: method as in earlier work; details: pigs after FLBZ treatment; cited from earlier work
[4] = Plasma pharmacokinetics of FLBZ and metabolites after oral or sc FLBZ formulations in jirds; format: in vivo, jirds (Meriones unguiculatus)
Method: as §1, with “All treatments were given as a single dose of 5 mg/kg. The dose was selected because it is the dose previously reported in efficacy studies performed in the murine model. At defined time-points following treatment (5, 15 and 30 min, 1, 2, 3, 4, 6, 9, 12 and 16 h), blood samples were collected (n = 4 per time point) in heparinized plastic tubes.” left out
Chromatography was performed on a Shimadzu HPLC platform (Shimadzu Corporation, Kyoto, Japan), with two LC-10AS solvent pumps, an automatic sample injector (SIL-10A) with a 50 µL loop, an ultraviolet-visible spectrophotometric detector (UV) (SPD-10A) reading at 292 nm, a column oven (Eppendorf TC-45, Eppendorf, Madison, WI, USA) set at 30°C, and a CBM-10A integrator. […]

SMILES	Increase of systemic exposure compared to the conventional FLBZ suspension [1]	Plasma AUC, fold higher than conventional suspension [1]	Plasma Cmax, fold higher than conventional suspension [1]	Time at which peak plasma concentrations were observed [2]	H-FLBZ as share of total drug measured in the bloodstream [3]	H-FLBZ concentrations as share of the total amount of drug recovered in plasma ([4]; FLBZ-CD (oral or sc) or FLBZ-TWEEN, 5 mg/kg)	Amount of R-FLBZ metabolite present in the bloodstream ([2]; rat, in vivo)	R-FLBZ AUC0-LOQ as share of the total drug recovered from plasma ([2]; rat, in vivo, 5 mg/kg)	R-FLBZ AUC0-LOQ as share of the total drug recovered from plasma ([4]; the different groups, FLBZ 5 mg/kg)
COC(=O)Nc1nc2cc(C(=O)c3ccc(F)cc3)ccc2[nH]1 [FLBZ, flubendazole]	more than 25 fold	27 fold	28 fold	0.7 to 3.2 h					
Nc1nc2cc(C(=O)c3ccc(F)cc3)ccc2[nH]1 [H-FLBZ]				3.0 to 5.2 h	97%	10–20%			
COC(=O)Nc1nc2ccc(C(O)c3ccc(F)cc3)cc2[nH]1 (stereo not shown) [R-FLBZ]							only trace amounts	about 10%	about 10%
